# Laboratory results reported in publication PMC10687260, “1,3-Diphenylureido hydroxamate as a promising scaffold for generation of potent antimalarial histone deacetylase inhibitors” (Scientific Reports, 2023).
# How the values were obtained:
# PfHDAC1 = molecular target: T1, PfHDAC1 (Plasmodium falciparum, UniProt Q7K6A1); test: In vitro PfHDAC1 enzymatic assay; format: biochemical; conditions: for inhibition at 1 µM / inhibition at 10 µM: recombinant PfHDAC1
# T1 construct: purchased BPS Bioscience (San Diego, CA)
# T1 sequence (Q7K6A1 1-449): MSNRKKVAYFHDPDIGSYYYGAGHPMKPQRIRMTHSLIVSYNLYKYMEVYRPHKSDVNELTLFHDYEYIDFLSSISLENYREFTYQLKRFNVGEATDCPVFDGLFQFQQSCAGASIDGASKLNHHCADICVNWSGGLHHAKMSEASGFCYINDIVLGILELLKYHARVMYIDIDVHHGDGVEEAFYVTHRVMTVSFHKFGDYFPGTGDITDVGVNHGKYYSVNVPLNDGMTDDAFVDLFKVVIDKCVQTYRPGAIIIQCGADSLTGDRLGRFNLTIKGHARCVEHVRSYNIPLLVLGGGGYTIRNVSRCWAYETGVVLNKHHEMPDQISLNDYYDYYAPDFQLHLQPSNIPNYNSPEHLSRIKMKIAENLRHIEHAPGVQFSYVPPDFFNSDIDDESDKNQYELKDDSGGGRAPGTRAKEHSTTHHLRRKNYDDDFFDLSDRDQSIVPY
# Method: In vitro PfHDAC1 enzymatic assay. PfHDAC inhibition assays were performed by BPS Bioscience (San Diego, CA). […] Then, each DMSO solution was directly diluted 10 × fold into the HDAC assay buffer for an intermediate dilution of 10% DMSO in HDAC assay buffer. Then, 5 µL of the intermediate dilution was added to a 50 µL reaction so that the final concentration of DMSO is 1% in all the reactions. […] Fluorescence intensity was measured at an excitation of 360 nm and an emission of 460 nm using a Tecan Infinite M1000 microplate reader. […] The fluorescent intensity data were analyzed using GraphPad Prism (v9.5.2). In the absence of the compound, the fluorescent intensity (Ft) in each data set was defined as 100% activity. In the absence of HDAC, the fluorescent intensity (Fb) in each data set was defined as 0% activity. The percent activity in the presence of each compound was calculated according to the following equation: % activity = (F-Fb)/(Ft-Fb), where “F” is the fluorescent intensity in the presence of the compound.
# human HDAC6 = molecular target: T2, human HDAC6 (Homo sapiens, UniProt Q9UBN7); test: In vitro HDAC enzymatic assay, HDAC6; format: biochemical; conditions: for IC50: mean ± SD; for HDAC1/6 SI: ratio HsHDAC1 IC50/HsHDAC6 IC50
# T2 construct: purchased ENZO Life Sciences AG (Lausen, CH)
# T2 sequence (Q9UBN7 1-1215): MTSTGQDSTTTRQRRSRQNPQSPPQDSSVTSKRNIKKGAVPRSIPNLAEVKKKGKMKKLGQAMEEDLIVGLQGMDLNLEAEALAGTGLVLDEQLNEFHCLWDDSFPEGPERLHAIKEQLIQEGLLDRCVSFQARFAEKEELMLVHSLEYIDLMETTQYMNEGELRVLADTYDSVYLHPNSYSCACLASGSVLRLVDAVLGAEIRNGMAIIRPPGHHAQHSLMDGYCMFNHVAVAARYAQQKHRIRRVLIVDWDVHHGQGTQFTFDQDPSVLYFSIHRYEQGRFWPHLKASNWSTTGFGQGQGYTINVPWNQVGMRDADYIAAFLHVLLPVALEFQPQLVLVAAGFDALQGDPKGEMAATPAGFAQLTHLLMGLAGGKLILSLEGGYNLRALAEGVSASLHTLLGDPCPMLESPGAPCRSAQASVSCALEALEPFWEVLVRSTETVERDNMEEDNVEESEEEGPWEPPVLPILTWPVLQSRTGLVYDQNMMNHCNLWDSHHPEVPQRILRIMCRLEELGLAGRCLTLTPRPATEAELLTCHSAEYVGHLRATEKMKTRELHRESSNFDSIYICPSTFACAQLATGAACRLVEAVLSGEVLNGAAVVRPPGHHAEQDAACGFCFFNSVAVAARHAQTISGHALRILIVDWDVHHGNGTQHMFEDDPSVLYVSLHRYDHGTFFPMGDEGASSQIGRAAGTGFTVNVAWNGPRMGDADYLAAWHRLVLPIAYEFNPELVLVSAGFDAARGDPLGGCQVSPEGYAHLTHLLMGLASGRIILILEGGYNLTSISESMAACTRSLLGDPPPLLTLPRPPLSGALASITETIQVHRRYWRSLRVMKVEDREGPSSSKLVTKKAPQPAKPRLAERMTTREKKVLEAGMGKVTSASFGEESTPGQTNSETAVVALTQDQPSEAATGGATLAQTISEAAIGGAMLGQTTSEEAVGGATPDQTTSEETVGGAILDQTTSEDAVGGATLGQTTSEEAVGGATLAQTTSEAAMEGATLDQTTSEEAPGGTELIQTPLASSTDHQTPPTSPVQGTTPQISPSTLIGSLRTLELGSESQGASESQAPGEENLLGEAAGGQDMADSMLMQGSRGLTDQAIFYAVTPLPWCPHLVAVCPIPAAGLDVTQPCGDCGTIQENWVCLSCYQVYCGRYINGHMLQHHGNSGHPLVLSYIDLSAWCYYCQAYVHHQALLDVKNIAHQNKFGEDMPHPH
# Method: In vitro HDAC enzymatic assays. Recombinant human HDAC1 and HDAC6 were purchased from ENZO Life Sciences AG (Lausen, CH) whereas HDAC8 was produced as described before. In vitro testing of the inhibitors in an enzymatic assay was carried out as described in previous publications[32],[33]. For HDAC1 a fluorogenic peptide derived from p53 (Ac-RHKK(Acetyl)-AMC) was used. For HDAC6, the substrate (Abz-SRGGK(thio-TFA)FFRR-NH2) was used as described before.
# CYP1A2 = molecular target: T3, CYP1A2 (Homo sapiens, UniProt P05177); test: CYP450 inhibition in human liver microsomes, 1A2; format: in vitro ADME; conditions: 10 µM
# T3 construct: 10 μM compound was incubated with human liver microsomes and selective marker substrates; from tissue; host or cells: human liver microsomes
# T3 sequence (P05177 1-516): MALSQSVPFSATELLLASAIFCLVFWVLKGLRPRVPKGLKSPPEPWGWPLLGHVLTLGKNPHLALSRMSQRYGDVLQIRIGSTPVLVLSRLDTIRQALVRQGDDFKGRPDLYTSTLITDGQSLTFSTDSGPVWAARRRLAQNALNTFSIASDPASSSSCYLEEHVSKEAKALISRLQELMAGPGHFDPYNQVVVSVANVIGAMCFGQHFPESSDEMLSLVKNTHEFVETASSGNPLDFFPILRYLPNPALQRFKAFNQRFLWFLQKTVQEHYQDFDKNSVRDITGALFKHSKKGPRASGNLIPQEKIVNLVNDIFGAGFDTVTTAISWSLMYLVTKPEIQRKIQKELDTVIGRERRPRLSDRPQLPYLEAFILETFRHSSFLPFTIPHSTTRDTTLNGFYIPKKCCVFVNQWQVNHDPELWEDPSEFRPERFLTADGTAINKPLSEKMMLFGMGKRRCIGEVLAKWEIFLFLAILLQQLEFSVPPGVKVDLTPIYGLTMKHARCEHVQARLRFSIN
SMILES,inhibition at 1 µM (PfHDAC1) [%],"remaining activity at 1 µM (PfHDAC1; 1 µM, read-out: PfHDAC1 residual activity) [%]",inhibition at 10 µM (PfHDAC1) [%],IC50 (human HDAC6) [nM],HDAC1/6 SI (human HDAC6),CYP450% inhibition @ 10 µM 1A2 (CYP1A2),melting point
"COc1ccc(NC(=O)Nc2ccc(/C=C/C(=O)NO)cc2)cc1 [Compound 6c, (E)-N-hydroxi-3-(4-(3-(4-methoxyphenyl)ureido)phenyl)acrylamide]",69,26,82,7.7 ± 0.9,206,32%,210 °C (dec.)
"COc1ccc(NC(=O)Nc2ccc(C(=O)NO)cc2)cc1 [Compound 8c, N-hydroxy-4-(3–4(-methoxyphenyl)ureido)benzamide]",~50,,,15.9 ± 0.4,,* (Inhibition < 10%),
"O=C(Nc1ccccc1)Nc1ccc(C(=O)NO)cc1 [Compound 8a, N-hydroxy-4-(3-phenylureido)bezamide]",,,,8.5 ± 0.8,627,48%,304 °C (dec.)
"O=C(Nc1ccc(Cl)cc1)Nc1ccc(C(=O)NO)cc1 [Compound 8b, 4-(3-(4-chlorophenyl)ureido)-N-hydroxybenzamide]",,,,15 ± 0.4,349,42%,357 °C (dec.)
"O=C(Nc1ccc(C(=O)NO)cc1)Nc1ccc([N+](=O)[O-])cc1 [Compound 8d, N-hydroxy-4-(3-(4-nitrophenyl)ureido)benzamide]",,,,13.4 ± 0.5,279,* (Inhibition < 10%),312 °C (dec.)
"COc1ccc(NC(=O)Nc2ccc(CCC(=O)NO)cc2)cc1 [Compound 7c, N-hydroxy-3-(4-(3-(4-methoxyphenyl)ureido)phenyl)propanamide]",~50,,88,151 ± 11.1,23,22%,202 to 204 °C
